Among the data in DBAASP are MIC values, retold here.

Some test systems named below: Escherichia coli UB1005; Bacillus pumilus; Candida boidinii; Escherichia coli; Psychrobacter sp. TAD 1; Shigella flexneri CP87.
Experiment in all cases: ≥ marks a high value that may be exact or a test limit, other limits are often not marked, values filed in µg/mL are converted to µM
In test [1] the test system is Salmonella enterica subsp. enterica serovar Pullorum C79-13.
Test [2] relates to Salmonella enterica subsp. enterica serovar Typhi CMCC 50071.
The subject of test [3] is Salmonella enterica subsp. enterica serovar Typhimurium ATCC 14028.
In test [4] the test system is Salmonella enterica subsp. enterica serovar Typhimurium C77-31.
The test system of test [5] is Staphylococcus aureus ATCC 25923.
The test system of test [6] is Staphylococcus aureus ATCC 29213.
The test system of test [7] is Staphylococcus epidermidis ATCC 12228.
The subject of test [8] is Candida albicans NCTC 1467.
Test [9] relates to Escherichia coli NCTC 10418.
Test [10] relates to Klebsiella pneumoniae ATCC 43816.
Test [11] has as its system Pseudomonas aeruginosa ATCC 27853.
In test [12] the test system is Staphylococcus aureus NCTC 10788.
The test system of test [13] is Staphylococcus aureus NCTC 12493.
Test [14] has as its system Escherichia coli ATCC 11229.
Test [15] relates to Escherichia coli ATCC 35218.
For test [16], the system named is Klebsiella pneumoniae ATCC 13866.
Test [17] has as its system Staphylococcus aureus ATCC 33591.
Test [18] relates to Acinetobacter baumannii ATCC 17978.
Test [19] deals with Escherichia coli ATCC 8739.
In test [20] the test system is Staphylococcus aureus HNCMO 112011.
In test [21] the test system is Agrobacterium tumefaciens DSM 3129.
Test [22] relates to Bacillus megaterium QMB 1551.
Test [23] relates to Bacillus subtilis NRRL B-237.
Test [24] relates to Bacillus thuringiensis serovar tenebrionis DSM 2803.
The test system of test [25] is Brenneria salicis NCPPB 2530.
Test [26] deals with Clavibacter michiganensis subsp. insidiosus NCPPB 1109.
Test [27] relates to Escherichia coli NCTC 9001.
Test [28] relates to Paenibacillus alvei LMG 6922.
Test [29] has as its system Pseudomonas syringae pv. tomato NCPPB 1106.
Test [30] has as its system Salmonella enterica subsp. enterica serovar Newport.
The test system of test [31] is Salmonella typhimurium ATCC 23565.
For test [32], the system named is Serratia marcescens ATCC 17991.
The test system of test [33] is Sinorhizobium meliloti ZB314.
Test [34] deals with Bacillus subtilis DSM 347.
Test [35] deals with Escherichia coli DSM 1116.
Test [36] concerns Franconibacter helveticus DSM 18390.
Test [37] relates to Staphylococcus xylosus DSM 20267.

Each structure is given as a SMILES string. Values after ≈ are worked out from the molar mass of the structure shown. Where only a bound is given, the exact number is not on record here.

The MIC is the smallest concentration in the dilution series that meets the test's criterion for growth inhibition. High values mean weaker potency, low ones greater potency. For `NCCCC[C@H](NC(=O)[C@H](CCCCN)NC(=O)[C@H](CCCN=C(N)N)NC(=O)[C@H](CCCN=C(N)N)NC(=O)[C@H](Cc1c[nH]c2ccccc12)NC(=O)[C@H](CCC(N)=O)NC(=O)[C@H](Cc1c[nH]c2ccccc12)NC(=O)[C@H](CCCN=C(N)N)NC(=O)[C@H](CCCN=C(N)N)NC(=O)[C@H](CCCCN)NC(=O)[C@@H](N)CCCCN)C(N)=O` [KKRRWQWRRKK], the minimum inhibitory concentration (MIC) was at least 32 µM against Escherichia coli UB1005; at least 128 µM in test [1]; at least 128 µM in test [2]; above 128 µM in [3]; at least 128 µM in test [4]; 128 µM (≈ 212 µg/mL) in test [5]. Also, the MIC in test [6] and in [7] was above 128 µM throughout.
With `CC[C@H](C)[C@@H]1NC(=O)[C@H](CC(C)C)NC(=O)[C@@H](NC(=O)[C@H](Cc2ccccc2)NC(=O)[C@H](CC(C)C)NC(=O)[C@H](CCCCN)NC(=O)[C@@H]2CCCN2C(=O)[C@H](CC(C)C)NC(=O)[C@@H](NC(=O)[C@H](CCCCN)NC(=O)[C@@H](NC(=O)[C@@H](NC(=O)[C@H](C)NC(=O)CNC(=O)[C@H](CC(C)C)NC(=O)[C@H](C)NC(=O)[C@@H](N)Cc2ccccc2)C(C)C)[C@@H](C)O)C(C)C)CSSC[C@@H](C(=O)O)NC(=O)[C@H](CCCCN)NC(=O)[C@H](CCCN=C(N)N)NC(=O)[C@H]([C@@H](C)O)NC1=O` [FALGAVTKVLPKLFCLITRKC], the MIC in test [8] was 16 µM (≈ 37.1 µg/mL); in [9], 16 µM (≈ 37.1 µg/mL); in test [10], at least 64 µM; in [11], 64 µM (≈ 148 µg/mL); in test [12], 4 µM (≈ 9.28 µg/mL); in test [13] it was 8 µM (≈ 18.6 µg/mL).
In the case of `CSCC[C@H](NC(=O)[C@H](CC(C)C)NC(=O)CN)C(=O)N[C@@H](CCCCN)C(=O)N[C@@H](CC(C)C)C(=O)N[C@@H](CC(C)C)C(=O)N[C@@H](CCCN=C(N)N)C(=O)N[C@@H](CCC(=O)O)C(=O)N[C@@H](CC(C)C)C(=O)N[C@@H](CC(C)C)C(=O)N[C@@H](Cc1cnc[nH]1)C(=O)N[C@@H](CCSC)C(=O)N[C@@H](Cc1ccccc1)C(=O)N[C@@H](CO)C(=O)N[C@@H](CCCN=C(N)N)C(=O)N[C@H](C(=O)NCC(=O)O)C(C)C` [GLMKLLRELLHMFSRVG], the MIC is at least 64 µM in test [14]; at least 64 µM in test [15]; 32 µM (≈ 64 µg/mL) in [16]; 8 µM (≈ 16 µg/mL) in test [11]; 32 µM (≈ 64 µg/mL) in [5]; 32 µM (≈ 64 µg/mL) in test [6]. Moreover, the MIC in [17] stood at 16 µM (≈ 32 µg/mL).
As to `CC[C@H](C)[C@H](NC(=O)[C@H](CCCCN)NC(=O)[C@H](CCCCN)NC(=O)[C@H](C)NC(=O)[C@H](CC(C)C)NC(=O)[C@H](C)NC(=O)[C@H](C)NC(=O)[C@H](CC(C)C)NC(=O)[C@H](C)NC(=O)[C@@H](N)CCCCN)C(=O)N[C@@H](CC(C)C)C(=O)O` [KALAALAKKIL], the MIC in test [18], in [19] and in test [20] was 25 µM (≈ 28.5 µg/mL) throughout.
On to `CC[C@H](C)[C@H](NC(=O)CNC(=O)[C@H](CCCN=C(N)N)NC(=O)[C@H](CC(C)C)NC(=O)[C@H](CC(C)C)NC(=O)[C@H](Cc1cnc[nH]1)NC(=O)CNC(=O)[C@H](Cc1ccccc1)NC(=O)[C@@H](N)Cc1ccccc1)C(=O)N[C@H](C(=O)N[C@@H](CO)C(=O)N[C@H](C(=O)NCC(=O)N[C@@H](CCCCN)C(=O)N[C@@H](Cc1cnc[nH]1)C(=O)N[C@H](C(=O)N[C@@H](Cc1cnc[nH]1)C(=O)NCC(=O)N[C@@H](CC(C)C)C(=O)N[C@H](C(=O)N[C@H](C(=O)NCC(=O)O)[C@@H](C)O)[C@@H](C)CC)[C@@H](C)CC)C(C)C)C(C)C` [FFGHLLRGIVSVGKHIHGLITG], for which the minimal inhibitory concentration (MIC) in the test on Bacillus pumilus was 10 µM (≈ 23.6 µg/mL); against Candida boidinii, at least 50 µM; against Escherichia coli it was 25 µM (≈ 59 µg/mL); against Psychrobacter sp. TAD 1, 2.5 µM (≈ 5.9 µg/mL).
In the case of `CC[C@H](C)[C@H](NC(=O)[C@H](Cc1ccc(O)cc1)NC(=O)[C@@H](NC(=O)[C@@H]1CCCN1C(=O)[C@H](CCCN=C(N)N)NC(=O)[C@H](CC(N)=O)NC(=O)[C@H](CC(N)=O)NC(=O)CN)C(C)C)C(=O)N1CCC[C@H]1C(=O)N[C@@H](CCC(N)=O)C(=O)N1CCC[C@H]1C(=O)N[C@@H](CCCN=C(N)N)C(=O)N1CCC[C@H]1C(=O)N1CCC[C@H]1C(=O)N[C@@H](Cc1cnc[nH]1)C(=O)N1CCC[C@H]1C(=O)N[C@@H](CCCN=C(N)N)C(=O)O` [GNNRPVYIPQPRPPHPR], the MIC in test [21] is 0.1 µM (≈ 0.2 µg/mL); in test [22] it was at least 75.2 µM; in test [23], at least 100 µM; in test [24], at least 100 µM; in test [25] it was 0.01 µM (≈ 0.02 µg/mL); in [26], 25.1 µM (≈ 50 µg/mL). Further, the MIC is 0.0501 µM (≈ 0.1 µg/mL) in [27]; at least 100 µM in test [28]; 0.1 µM (≈ 0.2 µg/mL) in test [29]; 0.1 µM (≈ 0.2 µg/mL) in test [30]; 0.0501 µM (≈ 0.1 µg/mL) in test [31]; at least 100 µM in test [32]. Moreover, the MIC (against Shigella flexneri CP87; in test [33]) was 0.0501 µM (≈ 0.1 µg/mL) in each case.
As for `CC(C)C[C@H](NC(=O)[C@H](CCCCN)NC(=O)[C@H](CC(C)C)NC(=O)[C@H](CCCCN)NC(=O)[C@H](CC(C)C)NC(=O)[C@H](CCCCN)NC(=O)[C@H](CC(C)C)NC(=O)[C@H](CCCCN)NC(=O)[C@H](CC(C)C)NC(=O)[C@H](CCCCN)NC(=O)[C@H](CC(C)C)NC(=O)[C@H](CCCCN)NC(=O)[C@H](CC(C)C)NC(=O)[C@H](CCCCN)NC(=O)[C@H](CC(C)C)NC(=O)[C@H](CCCCN)NC(=O)[C@H](CC(C)C)NC(=O)[C@@H](N)CCCCN)C(N)=O` [KLKLKLKLKLKLKLKLKL], the MIC in test [34] stood at 14.6 µM (≈ 32 µg/mL); in test [35] it was 14.6 µM (≈ 32 µg/mL); in test [36], 7.31 µM (≈ 16 µg/mL); in test [37], 3.65 µM (≈ 8 µg/mL).
